Values of other authors in patent US10640746B2, “Synthetic methylotrophs” (UNIVERSITY OF DELAWARE, priority 2016, dated 2020).

Columns and labels:
Settings in all cases: in vitro
[1] = test system: Corynebacterium glutamicum R (Cgl R) alcohol dehydrogenase A (Cgl AdhA, CgAdhA; GenBank BAF55711.1; SEQ ID NO: 1)
[2] = test system: Bacillus methanolicus MGA3 (Bme) methanol dehydrogenase 3 (Bme Mdh3, BmMdh3)
[3] = test system: Bacillus stearothermophilus 2334 (Bst) methanol dehydrogenase (Bst Mdh, BsMdh)

| SMILES | Km [1] [mM] | Vmax [1] [µmol/min/mg] | Vmax [2] [µmol/min/mg] | Km [3] [mM] | Vmax [3] [µmol/min/mg] |
| --- | --- | --- | --- | --- | --- |
| CCCCO [n-BuOH, n-butanol] | 35 | 8.9 | 2.3 | 0.01 |  |
| CO [MeOH, methanol] | 3 | 0.7 | 0.07 | 20 | 2.1 |
| CCO [EtOH, ethanol] | 6.8 | 7.8 | 2 | 0.08 |  |
| CCCO [n-PrOH, propanol] | 7.5 | 7.7 | 3.5 | 0.02 |  |
